In patent publication US10501425B2, “Microbiocidal oxadiazole derivatives” (SYNGENTA PARTICIPATIONS AG, priority 2015, dated 2019):

What was measured:
[1] = system: Glomerella lacenarium (Colletotrichum lagenarium); assay: Glomerella lagenarium liquid culture / cucumber / preventative (anthracnose); format: cell-based; details: Colletotrichum orbiculare; 20 ppm in the applied formulation; liquid culture (PDB), growth inhibition measured photometrically 3 to 4 days after application; compared to untreated; read-out: disease control
Description: Mycelia fragments or conidia suspensions of a fungus prepared either freshly from liquid cultures of the fungus or from cryogenic storage, are directly mixed into nutrient broth. DMSO solutions of the test compound (max. 10 mg/ml) are diluted with 0.025% Tween20 by a factor of 50 and 10 μl of this solution is pipetted into a microtiter plate (96-well format). The nutrient broth containing the fungal spores/mycelia fragments is then added to give an end concentration of the tested compound. The test plates are incubated in the dark at 24° C. and 96% relative humidity. The inhibition of fungal growth is determined photometrically after 2 to 7 days, depending on the pathosystem, and percent antifungal activity relative to the untreated check is calculated.
Conidia of the fungus from cryogenic storage are directly mixed into nutrient broth (PDB—potato dextrose broth). After placing a (DMSO) solution of test compound into a microtiter plate (96-well format), the nutrient broth containing the fungal spores is added.
The following compounds at 20 ppm in the applied formulation give at least 80% disease control in this test when compared to untreated control under the same conditions, which show extensive disease development.

[2] = system: Puccinia recondita f. Sp. Tritici; assay: Puccinia recondita f. sp. tritici / wheat / leaf disc preventative (brown rust); format: in vivo; details: foliar, 200 ppm in the applied formulation, wheat leaf segments cv. Kanzler, preventative (inoculated 1 day after application), compared to untreated, read-out: disease control
Description: Leaf disks or leaf segments of various plant species are cut from plants grown in a greenhouse. The cut leaf disks or segments are placed in multiwell plates (24-well format) onto water agar. The leaf disks are sprayed with a test solution before (preventative) or after (curative) inoculation. Compounds to be tested are prepared as DMSO solutions (max. 10 mg/ml) which are diluted to the appropriate concentration with 0.025% Tween20 just before spraying. The inoculated leaf disks or segments are incubated under defined conditions (temperature, relative humidity, light, etc.) according to the respective test system. A single evaluation of disease level is carried out 3 to 14 days after inoculation, depending on the pathosystem. Percent disease control relative to the untreated check leaf disks or segments is then calculated. Wheat leaf segments cv. Kanzler were placed on agar in multiwell plates (24-well format) and sprayed with the formulated test compound diluted in water. The leaf disks were inoculated with a spore suspension of the fungus 1 day after application. The inoculated leaf segments were incubated at 19° C. and 75% relative humidity (rh) under a light regime of 12 hours light/12 hours darkness in a climate cabinet and the activity of a compound was assessed as percent disease control compared to untreated when an appropriate level of disease damage appears in untreated check leaf segments (7 to 9 days after application). The following compounds at 200 ppm in the applied formulation give at least 80% disease control in this test when compared to untreated control leaf disks under the same conditions, which show extensive disease development.

[3] = system: Puccinia recondita f. Sp. Tritici; assay: Puccinia recondita f. sp. tritici / wheat / leaf disc curative (brown rust); format: in vivo; details: foliar, 24 h, 200 ppm in the applied formulation, wheat leaf segments cv. Kanzler, curative (applied 1 day after inoculation), compared to untreated, read-out: disease control
Description: Leaf disks or leaf segments of various plant species are cut from plants grown in a greenhouse. The cut leaf disks or segments are placed in multiwell plates (24-well format) onto water agar. The leaf disks are sprayed with a test solution before (preventative) or after (curative) inoculation. Compounds to be tested are prepared as DMSO solutions (max. 10 mg/ml) which are diluted to the appropriate concentration with 0.025% Tween20 just before spraying. The inoculated leaf disks or segments are incubated under defined conditions (temperature, relative humidity, light, etc.) according to the respective test system. A single evaluation of disease level is carried out 3 to 14 days after inoculation, depending on the pathosystem. Percent disease control relative to the untreated check leaf disks or segments is then calculated.
Wheat leaf segments cv. Kanzler are placed on agar in multiwell plates (24-well format). The leaf segments are then inoculated with a spore suspension of the fungus. Plates were stored in darkness at 19° C. and 75% relative humidity. The formulated test compound diluted in water was applied 1 day after inoculation. The leaf segments were incubated at 19° C. and 75% relative humidity under a light regime of 12 hours light/12 hours darkness in a climate cabinet and the activity of a compound was assessed as percent disease control compared to untreated when an appropriate level of disease damage appears in untreated check leaf segments (6 to 8 days after application).
The following compounds at 200 ppm in the applied formulation give at least 80% disease control in this test when compared to untreated control leaf disks under the same conditions, which show extensive disease development.

| SMILES | inhibition of growth at 20 ppm [1] [%] | pest or weed control at 200 ppm [2] [%] | pest or weed control at 200 ppm [3] [%] |
| --- | --- | --- | --- |
| COCC(=O)NCc1ccc(-c2noc(C(F)(F)F)n2)cc1C(F)(F)F [Compound 1.70, 2-methoxy-N-[[2-(trifluoromethyl)-4-[5-(trifiuoromethyl)-1,2,4-oxadiazol-3-yl]phenyl]methyl]acetamide] | ≥ 80 | – | – |
| CC(C)C(=O)NCc1ccc(-c2noc(C(F)(F)F)n2)cc1Cl [Compound 1.50, N-[[2-chloro-4-[5-(trifluoromethyl)-1,2,4-oxadiazol-3-yl]phenyl]methyl]-2-methyl-propanamide] | ≥ 80 | – | – |
| CCCC(=O)NCc1ccc(-c2noc(C(F)(F)F)n2)cc1Cl [Compound 1.52, N-[[2-chloro-4-[5-(trifiuoromethyl)-1,2,4-oxadiazol-3-yl]phenyl]methyl]butanamide] | ≥ 80 | – | – |
| C#CCOC(=O)NCc1ccc(-c2noc(C(F)(F)F)n2)cn1 [Compound 2.35, prop-2-ynyl N-[[5-[5-(trifluoromethyl)-1,2,4-oxadiazol-3-yl]-2-pyridyl]methyl]carbamate] | ≥ 80 | ≥ 80 | ≥ 80 |
| C=CCOC(=O)NCc1ccc(-c2noc(C(F)(F)F)n2)cn1 [Compound 2.25, allyl N-[[5-[5-(trifluoromethyl)-1,2,4-oxadiazol-3-yl]-2-pyridyl]methyl]carbamate] | ≥ 80 | ≥ 80 | ≥ 80 |
| CC(=O)NCc1ccc(-c2noc(C(F)(F)F)n2)cn1 [Compound 1.75, N-[[5-[5-(trifluoromethyl)-1,2,4-oxadiazol-3-yl]-2-pyridyl]methyl]acetamide] | ≥ 80 | ≥ 80 | ≥ 80 |
| CCCOC(=O)NCc1ccc(-c2noc(C(F)(F)F)n2)cn1 [Compound 2.20, propyl N-[[5-[5-(trifluoromethyl)-1,2,4-oxadiazol-3-yl]-2-pyridyl]methyl]carbamate] | ≥ 80 | ≥ 80 | ≥ 80 |
| N#CCC(=O)NCc1ccc(-c2noc(C(F)(F)F)n2)c(F)c1F [Compound 1.62, 2-cyano-N-[[2,3-difluoro-4-[5-(trifluoromethyl)-1,2,4-oxadiazol-3-yl]phenyl]methyl]acetamide] | ≥ 80 | ≥ 80 | ≥ 80 |
| CCCCOC(=O)NCc1ccc(-c2noc(C(F)(F)F)n2)cn1 [Compound 2.26, butyl N-[[5-[5-(trifluoromethyl)-1,2,4-oxadiazol-3-yl]-2-pyridyl]methyl]carbamate] | ≥ 80 | ≥ 80 | ≥ 80 |
| COCCC(=O)NCc1ccc(-c2noc(C(F)(F)F)n2)c(F)c1F [Compound 1.53, N-[[2,3-difluoro-4-[5-(trifluoromethyl)-1,2,4-oxadiazol-3-yl]phenyl]methyl]-3-methoxy-propanamide] | ≥ 80 | ≥ 80 | ≥ 80 |
| COCCOC(=O)NCc1ccc(-c2noc(C(F)(F)F)n2)cn1 [Compound 2.24, 2-methoxyethyl N-[[5-[5-(trifluoromethyl)-1,2,4-oxadiazol-3-yl]-2-pyridyl]methyl]carbamate] | ≥ 80 | ≥ 80 | ≥ 80 |
| CCCCCOC(=O)NCc1ccc(-c2noc(C(F)(F)F)n2)cc1 [Compound 2.9, pentyl N-[[4-[5-(trifluoromethyl)-1,2,4-oxadiazol-3-yl]phenyl]methyl]carbamate] | – | ≥ 80 | – |
| CC(C)(C)COC(=O)NCc1ccc(-c2noc(C(F)(F)F)n2)cn1 [Compound 2.34, 2,2-dimethylpropyl N-[[5-[5-(trifluoromethyl)-1,2,4-oxadiazol-3-yl]-2-pyridyl]methyl]carbamate] | ≥ 80 | – | ≥ 80 |
| COCCCC(=O)NCc1ccc(-c2noc(C(F)(F)F)n2)c(F)c1 [Compound 1.40, N-[[3-fluoro-4-[5-(trifluoromethyl)-1,2,4-oxadiazol-3-yl]phenyl]methyl]-4-methoxy-butanamide] | ≥ 80 | ≥ 80 | ≥ 80 |
| CC(=O)NCc1ccc(-c2noc(C(F)(F)F)n2)cc1Cl [Compound 1.64, N-[[2-chloro-4-[5-(trifluoromethyl)-1,2,4-oxadiazol-3-yl]phenyl]methyl]acetamide] | ≥ 80 | ≥ 80 | – |
| CC(C)COC(=O)NCc1ccc(-c2noc(C(F)(F)F)n2)cn1 [Compound 2.22, isobutyl N-[[5-[5-(trifluoromethyl)-1,2,4-oxadiazol-3-yl]-2-pyridyl]methyl]carbamate] | ≥ 80 | ≥ 80 | ≥ 80 |
| CCCCCOC(=O)NCc1ccc(-c2noc(C(F)(F)F)n2)cn1 [Compound 2.23, pentyl N-[[5-[5-(trifluoromethyl)-1,2,4-oxadiazol-3-yl]-2-pyridyl]methyl]carbamate] | ≥ 80 | ≥ 80 | – |
| N#CCC(=O)NCc1ccc(-c2noc(C(F)(F)F)n2)cn1 [Compound 1.73, 2-cyano-N-[[5-[5-(trifluoromethyl)-1,2,4-oxadiazol-3-yl]-2-pyridyl]methyl]acetamide] | ≥ 80 | – | ≥ 80 |
| COCCC(=O)NCc1ccc(-c2noc(C(F)(F)F)n2)cc1Cl [Compound 1.55, N-[[2-chloro-4-[5-(trifluoromethyl)-1,2,4-oxadiazol-3-yl]phenyl]methyl]-3-methoxy-propanamide] | ≥ 80 | – | – |
| CC(C)(C)CNC(=O)NCc1ccc(-c2noc(C(F)(F)F)n2)cc1 [Compound 3.8, 1-(2,2-dimethylpropyl)-3-[[4-[5-(trifluoromethyl)-1,2,4-oxadiazol-3-yl]phenyl]methyl]urea] | – | ≥ 80 | – |
| O=C(NCCCCl)NCc1ccc(-c2noc(C(F)(F)F)n2)cn1 [Compound 3.19] | – | ≥ 80 | – |
| CC(C)CNC(=O)NCc1ccc(-c2noc(C(F)(F)F)n2)cc1 [Compound 3.11, 1-isobutyl-3-[[4-[5-(trifluoromethyl)-1,2,4-oxadiazol-3-yl]phenyl]methyl]urea] | ≥ 80 | ≥ 80 | – |
| CCC(C)C(=O)NCc1ccc(-c2noc(C(F)(F)F)n2)cc1Cl (stereo not shown) [Compound 1.58, N-[[2-chloro-4-[5-(trifluoromethyl)-1,2,4-oxadiazol-3-yl]phenyl]methyl]-2-methyl-butanamide] | ≥ 80 | – | – |
| COCC(=O)NCc1ccc(-c2noc(C(F)(F)F)n2)cc1Cl [Compound 1.57, N-[[2-chloro-4-[5-(trifluoromethyl)-1,2,4-oxadiazol-3-yl]phenyl]methyl]-2-methoxy-acetamide] | ≥ 80 | – | ≥ 80 |
| CCCCNC(=O)NCc1ccc(-c2noc(C(F)(F)F)n2)cn1 [Compound 3.20, 1-butyl-3-[[5-[5-(trifluoromethyl)-1,2,4-oxadiazol-3-yl]-2-pyridyl]methyl]urea] | ≥ 80 | ≥ 80 | – |
